We go through 18 molecules from publication PMC5936786, “Discovery of Natural Products as Novel and Potent FXR Antagonists by Virtual Screening” (Frontiers in Chemistry, 2018).

Entries after “also recorded” stand apart in the source; their conditions may differ. Read-outs that look alike come from different tables or passages of the source. Some results are limits rather than exact numbers.

Assay [1] deals with T1, hFXR-LBD (interaction with coactivator SRC-1) (Homo sapiens, UniProt Q96RI1).
T1 construct: human FXRα-LBD (200-473 AA) was sub-cloned into vector pGBKT-7; expressed in transfected cells; host or cells: Saccharomyces cerevisiae strain AH109 (Clontech), co-transformed with pGBKT7-FXR LBD and pGADT7-SRC-1
T1 sequence (Q96RI1 214-486): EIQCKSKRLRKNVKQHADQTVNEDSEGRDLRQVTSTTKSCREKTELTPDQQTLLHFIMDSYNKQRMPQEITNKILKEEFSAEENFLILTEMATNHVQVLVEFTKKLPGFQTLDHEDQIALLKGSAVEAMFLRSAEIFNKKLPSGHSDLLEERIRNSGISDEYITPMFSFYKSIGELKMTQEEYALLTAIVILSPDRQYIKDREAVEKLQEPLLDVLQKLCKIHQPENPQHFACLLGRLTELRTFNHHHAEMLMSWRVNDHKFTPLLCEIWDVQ
Description: Y2H agonist assay: SRC-1 recruitment to FXR-LBD (α-galactosidase readout). The assay is classed as cell-based. Particulars: GAtreated/GADMSO (DMSO = 1.00), average of triplicate. The text has this:
Each experiment was repeated three times independently.
agonistic activation=GAtreated/GADMSOinhibition rate(%)=GACDCA−GAtreated/GACDCA−GADMSO
where GA indicates α-galactosidase activity.

The target of assay [2] is T2, hFXR-LBD (interaction with coactivator SRC-1) (Homo sapiens, UniProt Q96RI1).
T2 sequence (Q96RI1 200-472 isoform Q96RI1-2): T1 sequence (Q96RI1 214-486)
The assay is described as follows: Y2H antagonist assay: inhibition of CDCA-induced SRC-1 recruitment to FXR-LBD (α-galactosidase readout). The following applies: for antagonistic activity against FXR (in words): coactivator recruitment assay; for inhibition at 25 µM: read-out: Inhibition rate % (25 μM), 25 μM compound plus 10 μM CDCA, 24 h, average of triplicate.
Description: We performed Y2H assay to determine the agonistic or antagonistic activities of the compounds. […] The quantitative α-galactosidase activity assays were carried out by using PNP-α-Gal as the substrate according to the Clontech manual. Each experiment was repeated three times independently.
• Vortex the overnight culture tube for 0.5–1 min to disperse cell clumps and then each sample needs 200 μL to record the exact OD600. • Centrifuge the tube at 14,000 rpm (10,000 × g) for 30 s. Incubate 16 μL cell culture medium supernatant with 48 μL PNP-α-Gal at 30°C for 60 min. Be sure to cover microtiter plates with a lid or parafilm to prevent evaporation. • Terminate the reaction by adding 136 μL of 1 μM sodium carbonate. Record the optical density of each sample at 410 nm.
The α-galactosidase activity was calculated according to the following formula:
α−galactosidase activity[milliunits/(mL×cell)]​ ​​​=OD410×Vf×1000/(ε×b)×t×Vi×OD600
The agonistic activation and inhibition rates (%) were calculated as follows:

For assay [3], the system named is estrogen receptor (ER). Particulars: cited from earlier work; for agonistic profiles against ER (in words): ref Cao et al., 2013.
The test system of assay [4] is FXR. Particulars: cited from earlier work.
For assay [5], the system named is FXR. Particulars: FXR antagonist, cited from earlier work.
For assay [6], the system named is FXR. Particulars: FXR antagonist, cited from earlier work. This is another data set of the same source.
The test system of assay [7] is FXR. More on the design: method as in Dussault et al., 2003. The following applies: FXR antagonist; ref Dussault et al., 2003; cited from earlier work.
Assay [8] deals with FXR. Details: method as in Xu et al., 2015. The following applies: FXR antagonist; ref Xu et al., 2015; cited from earlier work.

`C/C(=C/C(=O)C[C@@H](C)[C@]1(C)CC[C@@]2(C)C3=CCC4C(C)(C)[C@H](O)CC[C@]4(C)[C@@H]3CC=C21)C(=O)O` (stereo partly drawn) [Compound 1a, Abiesatrine B]: the “Agonistic activation (25 μM)” value in assay [1] came to 1.09. In assay [2], 13.5 µM corresponded to half-maximal inhibition (IC50), the “antagonistic activity against FXR (in words)” value is “moderate antagonistic activity” and the inhibition at 25 µM is > 50%. The “agonistic effect against estrogen receptor (ER) (in words)” value in assay [3] (reported in a previous study, no reference given) is listed as “moderate agonistic effect”.
Take `C/C(=C/C(=O)C[C@@H](C)[C@H]1CC[C@@]2(C)C3=CCC4C(C)(C)C(=O)CC[C@]4(C)C3CC[C@]12C)C(=O)O` (stereo partly drawn) [Compound 1b, (24Z)-3,23-Dioxo-9βH-lanosta-7,24-dien-27-oic acid]: the “Agonistic activation (25 μM)” value in assay [1] amounted to 1.12. Moreover, in assay [2], the IC50 is > 25 µM, the “antagonistic activity against FXR (in words)” value is given as “no detectable antagonistic activity” and the inhibition at 25 µM came to 22.7%.
For `C/C(=C\CC[C@@H](C)[C@H]1CC[C@@]2(C)C3=CCC4C(C)(C)C(=O)CC[C@]4(C)C3CC[C@]12C)C(=O)O` (stereo partly drawn) [Compound 1c, Abiesatrine D], in that order: 0.93, > 25 µM, “no detectable antagonistic activity” and 12.8%.
Turning to `CC(C)(O)c1ccc2c(c1)C(=O)CC1[C@](C)(C(=O)O)CCC[C@]21C` (stereo partly drawn) [Compound 2a, 15-Hydroxy-7-oxo-8,11,13-abietatrien-18-oic acid], the “Agonistic activation (25 μM)” value in assay [1] was 1.05. For the same molecule, the IC50 in assay [2] was found to be 1.29 µM. In addition, the “fold stronger antagonistic activity compared with compound 1a” value in assay [2] (vs compound 1a) was 10 fold.
For `CC(=O)c1ccc2c(c1)C(=O)CC1[C@](C)(C(=O)O)CCC[C@]21C` (stereo partly drawn) [Compound 2b, 17-Nor-7,15-dion-8,11,13-abietatrien-18-oic acid], the “Agonistic activation (25 μM)” value in assay [1] turned out to be 0.90. Also, in assay [2], the IC50 is > 25 µM, the “antagonistic activity against FXR (in words)” value was “no observed activity” and the inhibition at 25 µM was 10.1%.
Consider `O=C(CCCCc1ccccc1)c1ccc(O)cc1` [Compound 3a, Daphneone], for which the “Agonistic activation (25 μM)” value in assay [1] was 1.03. For the same molecule, in assay [2], the midpoint of inhibition, the IC50, lay at 1.79 µM and the “fold higher antagonistic activity against FXR compared to guggulsterone” value stood at 3 fold.
`O=C(CC(O)CCc1ccccc1)c1ccc(O)cc1` (stereo not drawn) [Compound 3b, Daphneolon]: in assay [1], the “Agonistic activation (25 μM)” value turned out to be 0.76. Besides, in assay [2], the IC50 was > 25 µM and the inhibition at 25 µM is 41.4%.
Taken in the same sequence, the figures for `O=C(/C=C/CCc1ccccc1)c1ccc(O)cc1` [Compound 3c, Daphnenone] were 1.29, 5.46 µM and > 50%.
For `O=C(O)C=Cc1ccc(O)cc1` [Compound 3d, P-coumaric acid], the “Agonistic activation (25 μM)” value in assay [1] came to 1.08. In assay [2], half-maximal inhibition (IC50) required 14.1 µM, the “antagonistic activity against FXR (in words)” value is given as “moderate antagonistic activities; also recorded: moderate antagonistic effects” and the inhibition at 25 µM turned out to be 52.8%. Also, in assay [3], the “agonistic profiles against ER (in words)” value is listed as “agonistic profiles”.
Consider `CCOC(=O)c1ccc(O)cc1` [Compound 3e, Ethylparaben], for which the “Agonistic activation (25 μM)” value in assay [1] came out at 0.93. Besides, in assay [2], the IC50 amounted to 19.3 µM, the “antagonistic activity against FXR (in words)” value is on record as “moderate antagonistic activities; also recorded: moderate antagonistic effects” and the inhibition at 25 µM came to 60.1%. The “agonistic profiles against ER (in words)” value in assay [3] is recorded as “agonistic profiles”.
`CC[C@H]1[C@@H](O)[C@@H]2[C@H](CC[C@]3(C)[C@@H]([C@H](C)CCC(=O)O)CC[C@@H]23)[C@@]2(C)CC[C@@H](O)C[C@@H]12` [Compound 6-ECDCA, 6α-ethyl-chenodeoxycholic acid]: in assay [4] (ref Pellicciari et al., 2002, read-out: EC50, FXR agonistic activity), the EC50 was […]. Also, in assay [4] (vs CDCA), the “fold more potent FXR agonistic activity than CDCA” value is […].
Regarding `CC1(CO)CCCC2(C)C1CCC1(C)C2CC(O)C2(C)C3COC(=O)C3=CCC12` (stereo not drawn) [Compound 8], in assay [5] (ref Nam et al., 2007), the IC50 was 2.4 µM.
On to `CC(C)=CCCC1=C[C@@H](C/C(C)=C/CC[C@@]2(C)C=Cc3cc(O)cc(C)c3O2)OC1=O` [Compound 10], for which the IC50 in assay [5] (ref Choi et al., 2011) was 1.5 µM.
With `COc1cc(/C=C2\C(=O)N(c3cccc([N+](=O)[O-])c3)N=C2c2ccccc2)ccc1O` [Compound 11], the IC50 in assay [6] (ref Huang et al., 2012) is 8.96 µM.
Turning to `CCCCCCCc1c(\C(C)=C/C=C/C(C)=C/C(=O)O)cc(C(C)C)cc1C(C)C` [Compound 14], in assay [7], the IC50 was 0.3 µM.
Consider `CCCCC/C=C/C=C1/C=CC(=O)[C@@H]1C/C=C\CCCC(=O)O` [Compound 17], for which, in assay [6] (ref Xu et al., 2013), the IC50 was 7.25 µM.
On to `CN(C)c1cc(Cl)c(C(=O)N(Cc2ccccc2)c2ccc(O)c(C(C)(C)C)c2)c(Cl)c1` [Compound 18, N-benzyl-N-(3-(tert-butyl)-4-hydroxyphenyl)-2,6-dichloro-4-(dimethylamino) benzamide], for which the IC50 in assay [8] was 3.4 µM.
Turning to `COC(=O)/C=C/c1cccc(N(Cc2ccc(-c3ccc(N(C)C)cc3)cc2)C(=O)C2CCCCC2)c1` [Fexeramine, Fexaramine], the EC50 in assay [4] (reported FXR modulators, Figure 1, reference not given, read-out: EC50, FXR agonists (Figure 1)) is 0.025 µM.

As a reminder, the IC50 is the concentration that gives 50% inhibition. A word on the inhibition: it is the percentage by which the read-out fell short of the control. As a reminder, the EC50 is the concentration that produces a half-maximal response.
